Data published in article PMC3914206.

Assays:
Format in all cases: binding
Conditions in all cases: Compound Concentration 10 µM
[1] = target: T1, panel of 442 kinases (Homo sapiens, UniProt O15264)
T1 construct: purchased KINOMEscan
T1 sequence (O15264 1-365): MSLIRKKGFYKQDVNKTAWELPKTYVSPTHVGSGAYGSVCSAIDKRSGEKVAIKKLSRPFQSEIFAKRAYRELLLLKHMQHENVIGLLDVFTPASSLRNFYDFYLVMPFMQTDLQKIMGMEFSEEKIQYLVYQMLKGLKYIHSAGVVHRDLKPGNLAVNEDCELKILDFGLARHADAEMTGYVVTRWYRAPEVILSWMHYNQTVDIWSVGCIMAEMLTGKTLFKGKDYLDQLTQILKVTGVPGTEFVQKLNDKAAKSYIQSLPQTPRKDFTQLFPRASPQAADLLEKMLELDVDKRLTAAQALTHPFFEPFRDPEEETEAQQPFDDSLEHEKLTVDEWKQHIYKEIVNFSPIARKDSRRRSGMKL
Description: (§1) We assessed the selectivity of members of this scaffold using the KINOMEscan methodology across a near comprehensive panel of 442 kinases [[18,27]].

[2] = target: T2, panel of 442 kinases (Homo sapiens, UniProt P48736)
T2 construct: purchased KINOMEscan
Description: as §1

[3] = target: T3, panel of 442 kinases (Homo sapiens, UniProt Q13523)
T3 construct: purchased KINOMEscan
Description: as §1

T3 sequence (Q13523 whole entry): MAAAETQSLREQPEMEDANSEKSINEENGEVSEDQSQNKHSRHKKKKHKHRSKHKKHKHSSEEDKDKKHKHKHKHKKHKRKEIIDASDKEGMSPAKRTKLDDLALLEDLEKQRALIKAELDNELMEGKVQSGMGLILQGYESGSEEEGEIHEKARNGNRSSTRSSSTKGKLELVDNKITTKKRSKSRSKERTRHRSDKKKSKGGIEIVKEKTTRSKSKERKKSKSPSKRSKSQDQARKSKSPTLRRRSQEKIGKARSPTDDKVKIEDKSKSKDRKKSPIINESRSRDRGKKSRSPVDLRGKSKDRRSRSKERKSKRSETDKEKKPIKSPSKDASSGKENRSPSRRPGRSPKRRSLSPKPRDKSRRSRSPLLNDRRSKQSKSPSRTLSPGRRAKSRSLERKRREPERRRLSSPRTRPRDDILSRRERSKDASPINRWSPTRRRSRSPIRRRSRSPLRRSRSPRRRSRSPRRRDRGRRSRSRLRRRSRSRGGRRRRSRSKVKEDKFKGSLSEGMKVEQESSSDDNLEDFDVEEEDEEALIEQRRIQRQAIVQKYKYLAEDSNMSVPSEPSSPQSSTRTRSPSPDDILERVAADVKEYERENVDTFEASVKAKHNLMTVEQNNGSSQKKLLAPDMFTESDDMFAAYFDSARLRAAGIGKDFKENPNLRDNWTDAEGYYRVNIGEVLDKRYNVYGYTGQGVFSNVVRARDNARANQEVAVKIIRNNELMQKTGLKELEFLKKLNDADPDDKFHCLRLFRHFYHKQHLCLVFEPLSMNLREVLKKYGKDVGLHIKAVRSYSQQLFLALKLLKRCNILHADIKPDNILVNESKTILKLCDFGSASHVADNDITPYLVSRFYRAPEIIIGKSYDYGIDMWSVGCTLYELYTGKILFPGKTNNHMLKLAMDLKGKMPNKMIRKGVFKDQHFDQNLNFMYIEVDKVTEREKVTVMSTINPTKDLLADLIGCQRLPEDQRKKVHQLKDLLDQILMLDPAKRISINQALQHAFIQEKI
T2 sequence (P48736 whole entry): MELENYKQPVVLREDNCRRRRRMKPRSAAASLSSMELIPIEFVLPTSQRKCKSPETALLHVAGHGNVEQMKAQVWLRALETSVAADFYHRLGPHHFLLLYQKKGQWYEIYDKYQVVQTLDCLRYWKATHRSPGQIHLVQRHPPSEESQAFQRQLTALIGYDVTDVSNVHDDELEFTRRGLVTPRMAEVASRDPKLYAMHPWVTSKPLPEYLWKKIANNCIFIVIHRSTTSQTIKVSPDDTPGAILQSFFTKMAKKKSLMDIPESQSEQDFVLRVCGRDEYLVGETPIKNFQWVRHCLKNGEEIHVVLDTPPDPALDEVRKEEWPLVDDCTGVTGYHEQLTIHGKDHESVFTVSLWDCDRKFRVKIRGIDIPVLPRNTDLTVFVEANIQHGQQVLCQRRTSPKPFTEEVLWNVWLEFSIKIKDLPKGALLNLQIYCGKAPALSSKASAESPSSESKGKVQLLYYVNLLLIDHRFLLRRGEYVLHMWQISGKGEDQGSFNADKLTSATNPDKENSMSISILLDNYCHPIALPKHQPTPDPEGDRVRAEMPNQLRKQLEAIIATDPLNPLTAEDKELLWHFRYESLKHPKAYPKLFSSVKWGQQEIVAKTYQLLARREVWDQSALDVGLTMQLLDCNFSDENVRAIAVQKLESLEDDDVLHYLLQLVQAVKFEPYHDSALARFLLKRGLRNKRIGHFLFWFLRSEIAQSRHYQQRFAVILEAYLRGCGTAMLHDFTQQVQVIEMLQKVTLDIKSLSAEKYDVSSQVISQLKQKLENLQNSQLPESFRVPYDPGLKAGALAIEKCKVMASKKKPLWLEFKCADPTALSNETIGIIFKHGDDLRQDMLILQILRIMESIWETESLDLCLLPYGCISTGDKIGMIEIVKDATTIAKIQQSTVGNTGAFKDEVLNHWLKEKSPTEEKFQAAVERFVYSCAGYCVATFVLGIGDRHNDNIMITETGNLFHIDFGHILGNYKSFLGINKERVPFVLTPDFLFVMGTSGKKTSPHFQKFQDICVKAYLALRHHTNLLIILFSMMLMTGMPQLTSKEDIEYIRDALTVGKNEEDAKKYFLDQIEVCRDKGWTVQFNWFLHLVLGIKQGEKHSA

SMILES: CCOc1cc(C(=O)N2CCC(N3CCN(C)CC3)CC2)ccc1Nc1ncc2c(n1)N(C1CCCC1)c1ccccc1C(=O)N2C [Compound 26]
- KINOMEscan: p38-delta [1]: 100
- KINOMEscan: PIK3CG [2]: 82
- KINOMEscan: PRP4 [3]: 100

SMILES: COc1cc(C(=O)N2CCC(N3CCN(C)CC3)CC2)ccc1Nc1ncc2c(n1)N(C1CCCC1)c1ccccc1C(=O)N2C [Compound 25, 11-cyclopentyl-2-((2-methoxy-4-(4-(4-methylpiperazin-1-yl)piperidine-1-carbonyl)phenyl)amino)-5-methyl-5H-benzo[e]pyrimido[5,4-b][1,4]diazepin-6(11H)-one]
- KINOMEscan: p38-delta [1]: 100
- KINOMEscan: PIK3CG [2]: 80
- KINOMEscan: PRP4 [3]: 95

SMILES: COc1cc(C(=O)N2CCC(N3CCN(C)CC3)CC2)ccc1Nc1ncc2c(n1)N1CCc3cccc(c31)C(=O)N2C [Compound 24]
- KINOMEscan: PIK3CG [2]: 30

SMILES: COc1cc(C(=O)N2CCC(N3CCN(C)CC3)CC2)ccc1Nc1ncc2c(n1)N(C)c1ccccc1C(=O)N2C [15 (LRRK2-IN-1)]
- KINOMEscan: p38-delta [1]: 72
- KINOMEscan: PIK3CG [2]: 15
- KINOMEscan: PRP4 [3]: 93
